PubChem BioAssay AID1963437 (Molecular Pharmacology Branch, DTP, NCI, 2024)

Tested on: OVCAR-8 complex spheroid, growth inhibition
Test: Anticancer human tumor OVCAR-8 cell line growth inhibition [Asc];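 further: spheroids exposed to agents for 7 days before readout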;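 on viability, T/C: percent viability relative to DMSO vehicle wells taken as 100%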
Conditions: for IC50: curve of first compound; for viability, T/C: stronger effect = lower value
Method in brief: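 Complex solid-tumor spheroids incorporating human endothelial and mesenchymal stem cells received single agents or combinations over half-log dilution ranges anchored to clinical Cmax.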

[1] = second compound 0.0316 µM, first compound 0.0316 µM
[2] = second compound 0.0316 µM, first compound 0.1 µM
[3] = second compound 0.0316 µM, first compound 0.316 µM
[4] = second compound 0.0316 µM, first compound 1 µM
[5] = second compound 0.1 µM, first compound 0.0316 µM
[6] = second compound 0.1 µM, first compound 0.1 µM
[7] = second compound 0.1 µM, first compound 0.316 µM
[8] = second compound 0.1 µM, first compound 1 µM
[9] = second compound 0.316 µM, first compound 0.0316 µM
[10] = second compound 0.316 µM, first compound 0.1 µM
[11] = second compound 0.316 µM, first compound 0.316 µM
[12] = second compound 0.316 µM, first compound 1 µM
[13] = second compound 1 µM, first compound 0.0316 µM
[14] = second compound 1 µM, first compound 0.1 µM
[15] = second compound 1 µM, first compound 0.316 µM
[16] = second compound 1 µM, first compound 1 µM
[17] = second compound 3.16 µM, first compound 0.0316 µM
[18] = second compound 3.16 µM, first compound 0.1 µM
[19] = second compound 3.16 µM, first compound 0.316 µM
[20] = second compound 3.16 µM, first compound 1 µM
[21] = second compound 10 µM, first compound 0.0316 µM
[22] = second compound 10 µM, first compound 0.1 µM
[23] = second compound 10 µM, first compound 0.316 µM
[24] = second compound 10 µM, first compound 1 µM

C#Cc1c(F)ccc2cc(O)cc(-c3ncc4c(N5CC6CCC(C5)N6)nc(OCC56CCCN5CC(F)C6)nc4c3F)c12 (centres undefined) + Cc1c(S(C)(=O)=O)c(-c2cc(F)cc(N3CCN(c4ccc(NS(=O)(=O)c5ccc(NC(CCN6CCC(C(=O)OCCCP(=O)(O)O)CC6)CSc6ccccc6)c(S(=O)(=O)C(F)(F)F)c5)cc4)CC3)c2)c(-c2ccc(Cl)cc2)n1C(C)C
IC50 (second compound 0.0316 µM): > 10 µM
IC50 (second compound 0.1 µM): > 10 µM
IC50 (second compound 0.316 µM): > 10 µM
IC50 (second compound 1 µM): > 10 µM
IC50 (second compound 3.16 µM): > 10 µM
IC50 (second compound 10 µM): > 10 µM
viability, T/C [1]: 86.8%
viability, T/C [2]: 97.1%
viability, T/C [3]: 87.3%
viability, T/C [4]: 76.6%
viability, T/C (second compound 0.0316 µM, first compound 3.16 µM): 84.9%
viability, T/C (second compound 0.0316 µM, first compound 10 µM): 99.8%
viability, T/C [5]: 85.2%
viability, T/C [6]: 72.8%
viability, T/C [7]: 90.1%
viability, T/C [8]: 85.5%
viability, T/C (second compound 0.1 µM, first compound 3.16 µM): 90.4%
viability, T/C (second compound 0.1 µM, first compound 10 µM): 84.7%
viability, T/C [9]: 78.2%
viability, T/C [10]: 102%
viability, T/C [11]: 95.4%
viability, T/C [12]: 105%
viability, T/C (second compound 0.316 µM, first compound 3.16 µM): 94%
viability, T/C (second compound 0.316 µM, first compound 10 µM): 107%
viability, T/C [13]: 95.1%
viability, T/C [14]: 79%
viability, T/C [15]: 84.6%
viability, T/C [16]: 111%
viability, T/C (second compound 1 µM, first compound 3.16 µM): 106%
viability, T/C (second compound 1 µM, first compound 10 µM): 116%
viability, T/C [17]: 85.1%
viability, T/C [18]: 83.2%
viability, T/C [19]: 89.8%
viability, T/C [20]: 92.4%
viability, T/C (second compound 3.16 µM, first compound 3.16 µM): 102%
viability, T/C (second compound 3.16 µM, first compound 10 µM): 108%
viability, T/C [21]: 91.5%
viability, T/C [22]: 92.2%
viability, T/C [23]: 81.1%
viability, T/C [24]: 113%
viability, T/C (second compound 10 µM, first compound 3.16 µM): 94.2%
viability, T/C (second compound 10 µM, first compound 10 µM): 122%

CNC(C)C(=O)NC1CN(S(=O)(=O)c2cccc(S(=O)(=O)N3CCC4CCC(C(=O)NC(c5ccccc5)c5ccccc5)N4C(=O)C(NC(=O)C(C)NC)C3)c2)CCC2CCC(C(=O)NC(c3ccccc3)c3ccccc3)N2C1=O (centres undefined) + Cc1c(S(C)(=O)=O)c(-c2cc(F)cc(N3CCN(c4ccc(NS(=O)(=O)c5ccc(NC(CCN6CCC(C(=O)OCCCP(=O)(O)O)CC6)CSc6ccccc6)c(S(=O)(=O)C(F)(F)F)c5)cc4)CC3)c2)c(-c2ccc(Cl)cc2)n1C(C)C
IC50 (second compound 0.0316 µM): > 1 µM
IC50 (second compound 0.1 µM): > 1 µM
IC50 (second compound 0.316 µM): > 1 µM
IC50 (second compound 1 µM): > 1 µM
IC50 (second compound 3.16 µM): > 1 µM
IC50 (second compound 10 µM): > 1 µM
viability, T/C (second compound 0.0316 µM, first compound 0.00316 µM): 97.5%
viability, T/C (second compound 0.0316 µM, first compound 0.01 µM): 94.6%
viability, T/C [1]: 88.4%
viability, T/C [2]: 90.9%
viability, T/C [3]: 67.5%
viability, T/C [4]: 57.5%
viability, T/C (second compound 0.1 µM, first compound 0.00316 µM): 92.2%
viability, T/C (second compound 0.1 µM, first compound 0.01 µM): 84.5%
viability, T/C [5]: 80.8%
viability, T/C [6]: 76.5%
viability, T/C [7]: 64.5%
viability, T/C [8]: 59.7%
viability, T/C (second compound 0.316 µM, first compound 0.00316 µM): 106%
viability, T/C (second compound 0.316 µM, first compound 0.01 µM): 79.2%
viability, T/C [9]: 86.8%
viability, T/C [10]: 80.3%
viability, T/C [11]: 58.9%
viability, T/C [12]: 53.1%
viability, T/C (second compound 1 µM, first compound 0.00316 µM): 123%
viability, T/C (second compound 1 µM, first compound 0.01 µM): 97.1%
viability, T/C [13]: 86.8%
viability, T/C [14]: 80.6%
viability, T/C [15]: 59.4%
viability, T/C [16]: 60.1%
viability, T/C (second compound 3.16 µM, first compound 0.00316 µM): 91.2%
viability, T/C (second compound 3.16 µM, first compound 0.01 µM): 86.8%
viability, T/C [17]: 84.7%
viability, T/C [18]: 67.3%
viability, T/C [19]: 57.5%
viability, T/C [20]: 58.2%
viability, T/C (second compound 10 µM, first compound 0.00316 µM): 101%
viability, T/C (second compound 10 µM, first compound 0.01 µM): 78.2%
viability, T/C [21]: 78.9%
viability, T/C [22]: 60.2%
viability, T/C [23]: 52%
viability, T/C [24]: 59.2%
